Laboratory results taken from US10898458B2, “Self-micellizing fatty acids and fatty acid ester compositions and their use in the treatment of disease states” (Micelle BioPharma, Inc., priority 2013, dated 2021).
Blank lines part the entries; values can stand above or below the compound they belong to.

Legend:
[1] = in humans; cited from earlier work
porcine model of SBS [2] = experiment: Small bowel morphometry (villus height, crypt depth), porcine SBS model; format: in vivo, piglets; settings: within group
Description: (§1) The control group received a standard DHA ethyl ester preparation of substantially pure DHA ethyl ester (>90% DHA ethyl ester).
(§2) Samples of intestinal tissue resected at the time of surgery and remnants at sacrifice were collected from proximal jejunum (proximal to anastomosis) and distal ileum (distal to anastomosis) and morphological measurements of the crypts and villi were measured. Only intact villi and crypts were measured. All measurements were made by the same, single, blinded observer.
(§3) The primary outcome measure was a change in plasma DHA level in the SBS-treated group versus control group. Given the small number of piglets per group, appropriate small group statistical methods were used to evaluate differences in outcome variables. Variable summary statistics are expressed as median±interquartile range (IQR). The Wilcoxon Rank-Sum test, which is appropriate to compare two non-normal distributions as is common in small sample size, was used to compare outcome measures between groups; while the Wilcoxon signed-rank test, which is appropriate for repeated measurements within the same animal, was used to compare paired, before and after surgery outcome measures within groups. Differences in growth measurements and fatty acid levels over time between groups were evaluated using generalized linear mixed models (GLMM) to account for repeated measures and non-Gaussian, non-normal data.

porcine model of SBS [3] = experiment: Small intestine resection and final organ weights, porcine SBS model; format: in vivo, piglets; settings: at sacrifice after 4 days; median ± IQR
Description: (§4) Newborn, crossbred (Hampshire×Landrace×Duroc×Yorkshire) piglets (n=10), were weighed, placed in cages in a heated room (˜30° C.), and were fed with a commonly available sow milk replacement formula. After an overnight fast, piglets underwent surgery for the placement of jugular and intragastric catheters for postoperative parenteral and enteral nutrition, respectively, and small bowel resection surgery. Following a 4-cm midline incision an 80% mid-jejunoileal resection was performed. The total amount of bowel resection was approximated using the following equation: total intestinal length=280 cm×body weight^0.60. A 20% remnant (˜60 cm total per kg BW) remained and was represented equally between proximal jejunum and ileum, representing ˜30 cm each remnant segment per kg bodyweight. ˜45 cm of jejunum distal to the ligament of Treitz and ˜45 cm of ileum proximal to the ileocecal junction were measured using sterile silk ribbon placed along the antimesentric border of the gently stretched small intestine. Intestine not included in the measurement was removed via cauterization. Bowel continuity was restored using an end-to-end jejunoileal anastomosis.
as §1, §2, §3

porcine model of SBS [4] = experiment: Growth (weight) in neonatal porcine model of SBS; format: in vivo, piglets; settings: median ± IQR; for Change in weight: final minus starting weight, 4 days at 1 g/kg*day
Description: A study was conducted to evaluate, in an established porcine model of SBS, the systemic absorption and intestinal adaptation capacity of an ethyl ester form of DHA in combination with a surface active agent composition effective to spontaneously form micelles with said fatty acids upon contact with an aqueous media. In certain embodiments, the self-micellizing compositions may further contain at least one additional omega-3 fatty acid (either in the triglyceride, ester, or free fatty acid form), for example EPA or other known omega-3 fatty acids as disclosed herein. In certain embodiments, the self-micellizing compositions may further contain an anti-oxidant, such as tocopherol. In certain embodiments, the self-micellizing compositions may further contain an omega-6 fatty acid (either in the triglyceride, ester, or free fatty acid form), for example arachidonic acid (ARA), linoleic acid (LA), gamma-linolenic acid (GLA) or the omega-6 isomer of DPA, also known as osbond acid. This composition allows for micelle formation independent of the presence of bile salts as compared to a standard […] of DHA without a surface active agent (Control).
as §4
Continuous enteral feeding with a commonly available sow milk replacer formula, also lacking DHA, was slowly introduced 24 h after intestinal resection at 3 mL/kg*h via the intragastric catheter. The volume of enteral feedings was then advanced every 24 h by 1 ml/kg*h until a final enteral volume of 5 mL/kg*h was achieved on postoperative day 3 which represents approximately 50% of full enteral feeding volume and nutrient intake.
as §1
Piglets were weighed every other day. In addition to calculating a change in weight by subtracting the starting weight at the time of randomization from the final weight, percent weight change and growth velocity (g/kg*d) were also calculated. Percent weight change was calculated by: [((final weight-starting weight)/starting weight)×100]. Growth velocity was calculated by: [(weight change/starting weight)/4 days of treatment].
The primary outcome measure was a change in plasma DHA level in the SBS-treated group versus control group. […] Variable summary statistics are expressed as median±interquartile range (IQR). […]

[5] = Longitudinal plasma fatty acid levels, porcine SBS model; format: in vivo, piglets
From the text: as §1
Blood samples for systemic fatty acid profiles were obtained on the day of surgery and then twice daily until sacrifice on fourth postoperative day. Plasma fatty acids were isolated and measured.
as §3

patients with PSC = settings: 12-month open-label pilot study, n=23; cited from earlier work
COX-1 = COX-1 (Homo sapiens, UniProt P23219); settings: enzyme involved in synthesis of TXA2; cited from earlier work
COX-1, sequence (P23219 24-599): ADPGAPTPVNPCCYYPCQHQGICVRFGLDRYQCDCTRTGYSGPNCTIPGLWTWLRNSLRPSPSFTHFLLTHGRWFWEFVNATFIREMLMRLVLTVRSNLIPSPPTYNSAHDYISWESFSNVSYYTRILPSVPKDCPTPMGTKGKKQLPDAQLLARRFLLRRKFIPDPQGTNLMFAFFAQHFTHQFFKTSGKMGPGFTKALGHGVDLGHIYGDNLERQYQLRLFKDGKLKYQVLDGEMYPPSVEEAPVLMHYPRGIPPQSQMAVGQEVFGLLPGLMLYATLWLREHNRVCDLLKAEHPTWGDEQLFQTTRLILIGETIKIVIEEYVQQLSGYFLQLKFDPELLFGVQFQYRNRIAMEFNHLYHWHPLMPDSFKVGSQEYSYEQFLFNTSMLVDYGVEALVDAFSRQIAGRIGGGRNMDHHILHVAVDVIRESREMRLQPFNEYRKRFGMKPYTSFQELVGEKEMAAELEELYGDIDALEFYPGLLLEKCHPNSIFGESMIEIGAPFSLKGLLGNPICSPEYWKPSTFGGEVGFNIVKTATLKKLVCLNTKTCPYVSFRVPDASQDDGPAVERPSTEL

[6] = end of experiment vs time of surgery
[7] = Time 0, at the time of surgery (baseline)
[8] = within 12 hours, after the first enteral dose of DHA

SMILES: CC/C=C\C/C=C\C/C=C\CCCCCCCC(=O)O [ALA, alpha-linolenic acid]
- Conversion to DHA [1]: 2-5%
- Conversion to EPA [1]: 5-10%

- Initial plasma ARA level [5, 7]: 11.8±0.5 mol %
- Initial plasma DHA level [5, 7]: 2.3±0.4 mol %
- Initial plasma EPA level [5, 7]: 0.3±0.1 mol %
- Initial plasma LA level [5, 7]: 16.6±1.8 mol %
- Plasma ARA level ([5]; third postoperative day): 8.7±0.8 mol %
- Plasma DHA level [5, 8]: 2.5 mol %
- Plasma EPA level [5, 8]: 0.2±0.005 mol %
SMILES: CC/C=C\C/C=C\C/C=C\C/C=C\C/C=C\C/C=C\CCC(=O)OCC [Control, DHA ethyl ester]
- Villus height of distal ileum, Final vs Day 0 (porcine model of SBS [2]; [6]): reduced, but not significantly different
- Villus height of proximal jejunum, Final vs Day 0 (porcine model of SBS [2]; [6]): not significantly different
- Crypt depth of distal ileum, final vs baseline (porcine model of SBS [2]): increased from baseline
- Crypt depth of proximal jejunum, final vs baseline (porcine model of SBS [2]; p<0.05): increased
- Brain (final weight) (porcine model of SBS [3]): 14.0 ± 1.6 g/kg
- Ileum (final length) (porcine model of SBS [3]): 17.5 ± 4.7 cm/kg
- Ileum (final weight) (porcine model of SBS [3]): 5.3 ± 1.2 g/kg
- Jejunum (final length) (porcine model of SBS [3]): 21.2 ± 6.7 cm/kg
- Jejunum (final weight) (porcine model of SBS [3]): 5.2 ± 1.4 g/kg
- Liver (final weight) (porcine model of SBS [3]): 36.3 ± 2.5 g/kg
- Growth velocity (porcine model of SBS [4]; 4 days of treatment): 13.5 ± 30.1 g/kg/day
- Weight change (porcine model of SBS [4]; 4 days of treatment): 5.4 ± 12.1%
- Weight at finish (porcine model of SBS [4]; after 4 days at 1 g/kg*day via intragastric catheter): 2594 ± 170 g
- Change in weight (porcine model of SBS [4]): 132 ± 278 g
- Change in weight (porcine model of SBS [4]; listed as control): 132 ± 278 g

SMILES: CC/C=C\C/C=C\C/C=C\C/C=C\C/C=C\C/C=C\CCC(=O)O [DHA, (4Z,7Z,10Z,13Z,16Z,19Z)-docosa-4,7,10,13,16,19-hexaenoic acid]
- Alkaline phosphatase (patients with PSC): significant decline
- Serum DHA levels (patients with PSC): increase

SMILES: CC/C=C\C/C=C\C/C=C\C/C=C\C/C=C\CCCCCC(=O)O [Omega-3 DPA, all-cis-7,10,13,16,19-docosapentaenoic acid]
- COX-1 activity (COX-1): potent inhibitor
